Assays:
[1] = tested on: 22AG (DNA, G4) AGGGTTAGGGTTAGGGTTAGGG; experiment: photometric (absorption) titration; details: K+ 110 mM; K-phosphate buffer, pH 7.0, 5% v/v DMSO; ligand 20 µM; per site
[2] = tested on: F21T (DNA, G4) GGGTTAGGGTTAGGGTTAGGG; experiment: FRET melting; details: K+ 10 mM, Na+ 10 mM, Li+ 90 mM; KCl–LiCl–cacodylate, pH 7.0; LDR 5; DNA 0.2 mM [sic] (0.2 µM, ligand 1 µM)
[3] = tested on: FmycT (DNA, G4) TGAGGGTGGGTAGGGTGGGTA; experiment: FRET melting; details: K+ 10 mM, Na+ 10 mM, Li+ 90 mM; KCl–LiCl–cacodylate, pH 7.0; LDR 5; DNA 0.2 mM [sic] (0.2 µM, ligand 1 µM)
[4] = tested on: Fa2T (DNA, G4) ACAGGGTGTACAGGGTGT; experiment: FRET melting; details: K+ 10 mM, Na+ 10 mM, Li+ 90 mM; KCl–LiCl–cacodylate, pH 7.0; LDR 5; DNA 0.2 mM [sic] (0.2 µM, ligand 1 µM)
[5] = tested on: FkitT (DNA, G4) AGGGAGGGCGCTGGGAGGAGGG; experiment: FRET melting; details: K+ 10 mM, Na+ 10 mM, Li+ 90 mM; KCl–LiCl–cacodylate, pH 7.0; LDR 5; DNA 0.2 mM [sic] (0.2 µM, ligand 1 µM)

Compound	Kb [1]	∆Tm [2]	∆Tm [3]	∆Tm [4]	∆Tm [5]
COc1c(Oc2ccc([N+](=O)[O-])cc2)ccc2cc3[n+](cc12)CCc1cc2c(cc1-3)OCO2	7.9 ± 0.3 × 10^5 M^-1	3.5 ± 0.5 °C	1.8 ± 0.5 °C	–	–
COc1ccc(Oc2ccc3cc4[n+](cc3c2OC)CCc2cc3c(cc2-4)OCO3)cc1	7.2 ± 0.2 × 10^5 M^-1	3.9 ± 0.5 °C	–	0.1 ± 0.5 °C	0.6 ± 0.5 °C
COc1c(Oc2ccccc2)ccc2cc3[n+](cc12)CCc1cc2c(cc1-3)OCO2	8.7 ± 0.2 × 10^5 M^-1	3.2 ± 0.5 °C	0.4 ± 0.5 °C	–	0.1 ± 0.5 °C

The remaining lines, values ahead:

Kb [1]	∆Tm [2]	∆Tm [3]	∆Tm [4]	∆Tm [5]	Compound
5.2 ± 0.3 × 10^5 M^-1	1.8 ± 0.5 °C	2.1 ± 0.5 °C	–	–	COc1c(Oc2ccc(Br)cc2)ccc2cc3[n+](cc12)CCc1cc2c(cc1-3)OCO2
7.1 ± 0.2 × 10^5 M^-1	2.6 ± 0.5 °C	–	1.2 ± 0.5 °C	–	COc1c(Oc2ccc(Cl)cc2)ccc2cc3[n+](cc12)CCc1cc2c(cc1-3)OCO2

From article PMC8111429 (2021)
